Laboratory results from patent publication US20040034222A1, “2,4 diamino-1,3,5-triazines, processes for their preparation and their use as herbicides and plant growth regulators” (priority 1999, published 2004).

Tests used:
Assay type in all cases: in vivo
[1] = test system: Stellaria media, Lolium multiflorum, Amaranthus retroflexus, Sinapis arvensis, Avena fatua and Setaria viridis; experiment: Pre-emergence effect on weeds (greenhouse pot test); details: application rate of 1 kg and less of active substance per hectare; scored after 3 to 4 weeks by comparison with untreated controls
Text: Seeds or rhizome pieces of monocotyledonous and dicotyledonous weed plants are placed in sandy loam soil in plastic pots and covered with soil. The compounds according to the invention which are formulated in the form of wettable powders or emulsion concentrates were then applied to the surface of the soil cover in the form of aqueous suspensions or emulsions at an application rate of 600 to 800 l of water/ha (converted), in various dosages.
After the treatment, the pots are placed in a greenhouse and kept under good growth conditions for the weeds. After the test plants had emerged, the damage to the plants or the negative effect on the emergence was scored visually after a test period of 3 to 4 weeks by comparison with untreated controls. As shown by the test results, compounds according to the invention have good herbicidal pre-emergence activity against a broad spectrum of weed grasses and broad-leafed weeds.

[2] = test system: Stellaria media, Lolium multiflorum, Amaranthus retroflexus, Sinapis arvensis, Avena fatua und Setaria viridis; experiment: Post-emergence effect on weeds (greenhouse pot test); details: application rate of 1 kg and less of active substance per hectare; treated at three-leaf stage; scored after about 3 to 4 weeks by comparison with untreated controls
Procedure: Seeds or rhizome pieces of monocotyledonous and dicotyledonous weeds were placed in sandy loam soil in plastic pots, covered with soil and grown in a greenhouse under good growth conditions. Three weeks after sowing, the test plants were treated at the three-leaf stage. The compounds according to the invention which were formulated as wettable powders or emulsion concentrates were sprayed, at various dosages, onto the, green parts of the plants at an application rate of 600 to 800 l of water/ha (converted). After the test plants had remained in the greenhouse for about 3 to 4 weeks under optimum growth conditions, the effect of the preparations was scored visually by comparison with untreated controls. The agents according to the invention also have good herbicidal activity post-emergence against a broad spectrum of economically important weed grasses and broad-leafed weeds.

[3] = test system: harmful plants which are typical for rice crops, for example Cyperus iria and Echinochloa crus-galli; experiment: Action on harmful plants in rice (paddy rice conditions); details: applied into the dammed water, different dosages, scored about three weeks after application
Text: Transplanted and sown rice and also typical rice weeds (gramineous and broad-leaved) are cultivated in closed plastic pots in a greenhouse to the three-leaf stage (Echinochloa crus-galli 1.5-leaf) under paddy rice conditions (dammed height of water: 2-3 cm). This is followed by treatment with the novel compounds. For this purpose, the formulated active compounds are suspended, dissolved or emulsified in water and applied by pouring them into the dammed water around the test plants in different dosages. After this treatment, the test plants are set up in a greenhouse under optimum growth conditions and are maintained in this way throughout the test period.
About three weeks after application, evaluation is made by visual scoring of the damage to the plants by comparison with untreated controls.

Cc1cccc(OCC(Nc2nc(N)nc(C(F)(F)C(F)F)n2)C2CCCC2)c1 (racemic) [Example 110, 2-Amino-4-(1,1,2,2-tetrafluoroethyl)6-{N-[1-cyclopentyl-2-(3-methylphenoxy)ethyl]amino}-1,3,5-triazine]
very good herbicidal activity: herbicidal activity pre-emergence (damage to the plants or negative effect on emergence, scored visually) [1] | herbicidal activity post-emergence (scored visually) [2] | herbicidal activity against harmful plants typical for rice crops (visual scoring of damage) [3]

CC(C)(F)c1nc(N)nc(NC(COc2ccccc2)C2CCC2)n1 (racemic) [Example 178, 2-Amino4-(1-fluoro-1-methylethyl)-6-[N-(1-cyclobutyl-2-phenoxyethyl)-amino]-1,3,5-triazine]
very good herbicidal activity: herbicidal activity pre-emergence (damage to the plants or negative effect on emergence, scored visually) [1] | herbicidal activity post-emergence (scored visually) [2] | herbicidal activity against harmful plants typical for rice crops (visual scoring of damage) [3]
